Source: patent US20080114008A1, “Quinazoline Derivatives as Antiviral Agents” (ARROW THERAPEUTICS LIMITED, priority 2005, published 2008)

Columns and labels:
[1] = tested on: HCV replicon cells Huh 9B; test: Tox assay (methylene blue staining of replicon cells); type: cell-based; conditions: Huh 9B replicon cells, 72 h incubation, methylene blue absorbance at 620 nm
Description: (§1) HCV replicon cells Huh 9B (ReBlikon), containing the firefly luciferase—ubiquitin—neomycin phosphotransferase fusion protein and EMCV-IRES driven HCV polyprotein with cell culture adaptive mutations.
(§2) Cells were cultured at 37° C. in a 5% CO2 environment and split twice a week on seeding at 2×10E6 cells/flask on day 1 and 1×10E6 3 days later. Some 0.25 mg/ml G418 was added to the culture medium (125 ul per 25 ml) but not the assay medium.
(§3) The culture medium consisted of DMEM with […] glucose and glutamax (Gibco 61965-026) supplemented with 1× non-essential amino acids, penicillin (100 IU/ml) / streptomycin (100 μg/ml), FCS (10%, 50 ml) and 1 mg/ml G418 (Invitrogen cat no 10131-027) & 10% foetal calf serum.
(§4) A flask of cells was trypsinised and a cell count carried out. Cells were diluted to 100,000 cells/ml and 100 μl of this used to seed one opaque white 96-well plate (for the replicon assay) and one flat-bottomed clear plate (for the tox assay) for every seven compounds to be tested for IC50. Wells G12 and H12 were left empty in the clear plate as the blank. Plates were then incubated at 37° C. in a 5% CO2 environment for 24 h.
(§5) On the following day compound dilutions are made up in medium at twice their desired final concentration in a clear round bottomed plate. All dilutions have a final DMSO concentration of 1%.
Once the dilution plate had been made up, controls and compounds were transferred to the assay plate (containing the cells) at 100 μl/well in duplicate plates. Exception: in the white (replicon) plate, no compound was added to wells A1 and A2 and 100 μl of 1% DMSO was added to these instead. In the clear (Tox) plate, wells E12 & F12 only contained the DMSO control. […]
The clear plate was stained with 100 μl 0.5% methylene blue in 50% ethanol at RT for 1 h, followed by solvation of the absorbed methylene blue in 100 μl per well of 1% lauroylsarcosine. Absorbance of the plate was measured on a microplate spectrophotometer (Molecular Devices) and the absorbance for each concentration of compound expressed as a proportion of the relative DMSO control. […]

[2] = tested on: HCV replicon cells Huh 9B; test: HCV replicon luciferase assay; type: cell-based; conditions: Hepatitis C virus; Huh 9B replicon cells, 72 h incubation, luciferase readout
Description: as §1, §2, §3, §4, §5
Once the dilution plate had been made up, controls and compounds were transferred to the assay plate (containing the cells) at 100 μl/well in duplicate plates. Exception: in the white (replicon) plate, no compound was added to wells A1 and A2 and 100 μl of 1% DMSO was added to these instead. In the clear (Tox) plate, wells E12 & F12 only contained the DMSO control. Plates were then incubated at 37° C. with 5% CO2 for 72 h.
At the end of the incubation time, the cells in the white plate were harvested by washing with 200 μl/well of warm (37° C.) PBS and lysed with 20 μl cell culture lysis buffer (Promega). […]

c1nc(Nc2ccc(N3CCOCC3)cc2)c2cc(-c3ccc4ncnc(Nc5ccc(N6CCOCC6)cc5)c4c3)ccc2n1 [Example 1, N-(4-morpholinophenyl)-6-(4-(4-morpholinophenylamino)quinazolin-6-yl)quinazolin-4-amine]
Replicon TD50 [1]: *** (>25 uM = ***) | IC50 [2]: < 1000 nM

c1ccc(Nc2ncnc3ccc(-c4ccc5ncnc(Nc6ccc(N7CCOCC7)cc6)c5c4)cc23)cc1 [Example 2, N*4*-(4-Morpholin-4-yl-phenyl)-N*4′*-phenyl-[6,6′]biquinazolinyl-4,4′-diamine]
Replicon TD50 [1]: *** (>25 uM = ***) | IC50 [2]: < 1000 nM

c1nc(Nc2ccc(-n3cncn3)cc2)c2cc(-c3ccc4ncnc(Nc5ccc(-n6cncn6)cc5)c4c3)ccc2n1 [Example 3, N*4*,N*4′*-Bis-(4-[1,2,4]triazol-1-yl-phenyl)-[6,6′]biquinazolinyl-4,4′-diamine]
Replicon TD50 [1]: *** (>25 uM = ***) | IC50 [2]: < 1000 nM
